BindingDB's records for doi:10.1074/jbc.M109.017632 (University of California San Francisco, 2009)
pKd: −log10 of the molar value.

Assays:
Assay in all cases: Binding Assay
[1] = target: T1, Steroid C26-monooxygenase (Mycobacterium tuberculosis (strain CDC 1551 / Oshkosh), UniProt P9WPL4)
T1 sequence (P9WPL4 whole entry): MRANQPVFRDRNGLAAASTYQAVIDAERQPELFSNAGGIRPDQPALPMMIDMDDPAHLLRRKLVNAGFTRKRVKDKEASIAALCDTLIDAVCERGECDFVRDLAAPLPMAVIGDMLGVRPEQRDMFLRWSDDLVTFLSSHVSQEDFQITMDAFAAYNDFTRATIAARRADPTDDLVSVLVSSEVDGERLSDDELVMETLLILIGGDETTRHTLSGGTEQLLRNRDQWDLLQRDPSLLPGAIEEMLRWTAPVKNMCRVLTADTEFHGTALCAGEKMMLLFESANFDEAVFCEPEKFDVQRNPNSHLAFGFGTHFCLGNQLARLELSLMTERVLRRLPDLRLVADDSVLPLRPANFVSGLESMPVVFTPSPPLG
Description: (§1) Binding assay using CYP130, CYP130 (G234) or CYP142.

Cytochrome P450 130 [2] = target: T2, Cytochrome P450 130 (Mycobacterium tuberculosis (strain CDC 1551 / Oshkosh), UniProt P9WPN4)
T2 sequence (P9WPN4 whole entry): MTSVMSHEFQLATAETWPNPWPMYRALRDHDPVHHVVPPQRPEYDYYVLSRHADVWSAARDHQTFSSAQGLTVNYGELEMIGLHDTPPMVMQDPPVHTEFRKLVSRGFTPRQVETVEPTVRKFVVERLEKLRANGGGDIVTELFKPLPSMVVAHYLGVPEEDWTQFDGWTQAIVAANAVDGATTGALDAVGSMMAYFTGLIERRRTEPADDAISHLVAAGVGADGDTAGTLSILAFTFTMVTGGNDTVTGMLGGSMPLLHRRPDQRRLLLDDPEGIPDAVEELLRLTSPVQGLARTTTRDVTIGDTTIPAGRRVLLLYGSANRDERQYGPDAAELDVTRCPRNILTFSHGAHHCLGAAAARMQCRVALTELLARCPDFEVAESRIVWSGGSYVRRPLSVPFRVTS
Description: as §1

Cytochrome P450 130 [3] = target: T3, Cytochrome P450 130 (Mycobacterium tuberculosis (strain ATCC 25618 / H37Rv), UniProt P9WPN5)
T3 sequence (P9WPN5 whole entry): T2 sequence (P9WPN4 whole entry)
Description: as §1

Row | Compound | pKd [1] | pKd (Cytochrome P450 130 [2]) | pKd (Cytochrome P450 130 [3])
1 | Clc1ccc(COC(Cn2ccnc2)c2ccc(Cl)cc2Cl)cc1 (stereo unspecified) [ECONAZOLE] | 6.48 | 5.71 | 5.35
2 | Clc1ccccc1C(c1ccccc1)(c1ccccc1)n1ccnc1 |  | 4.88 | 5.21
3 | NCc1ccccc1 | 7.00 | 2.00 | 2.00
4 | Cc1cccc(-n2cnc3cc(N)ccc32)c1 [Arylamine compound 4] |  | 5.32 | 4.49
5 | Nc1ccc(Sc2ccc(N3C(=O)c4ccc(N)cc4C3=O)cc2)cc1 [Arylamine compound 2] | 6.77 | 5.97 | 5.31
6 | Nc1ccccc1 [Aniline] | 4.23 | 4.26 | 2.60
